Each molecule was assayed against plasminogen activator inhibitor 1 (PAI-1) (Homo sapiens, UniProt P05121) (assay: Bioassay for PAI-1 inhibitors (tPA amidolysis of chromogenic substrate in presence of PAI-1)). Conditions: inhibition of PAI-1 measured via tPA activity; 4.5 nM PAI-1, 7.5 nM tPA, 1 mM substrate H-D-Ile-Pro-Arg-pNA, TRIS buffer pH 8.4, OD 405 nm, 37° C. 60 minutes.
plasminogen activator inhibitor 1 (PAI-1), sequence (P05121 24-402): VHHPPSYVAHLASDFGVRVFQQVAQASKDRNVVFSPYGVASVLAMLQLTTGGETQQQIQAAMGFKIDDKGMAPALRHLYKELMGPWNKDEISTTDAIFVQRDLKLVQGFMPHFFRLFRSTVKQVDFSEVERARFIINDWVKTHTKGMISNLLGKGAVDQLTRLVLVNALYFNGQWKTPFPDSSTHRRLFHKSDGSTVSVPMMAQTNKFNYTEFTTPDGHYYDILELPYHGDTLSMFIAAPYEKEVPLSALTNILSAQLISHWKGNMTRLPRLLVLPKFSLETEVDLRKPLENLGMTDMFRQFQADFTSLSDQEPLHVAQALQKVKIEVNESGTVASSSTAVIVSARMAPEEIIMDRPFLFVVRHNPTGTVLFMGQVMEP
Assay type: biochemical
Procedure: For the detection of the inhibitors of PAI-1, a test is run in which the activation of a specific substrate by tPA is measured in the presence of a defined amount of PAI-1 and the substance in each case to be investigated. tPA is inhibited by PAI-1. An inhibition of PAI-1 results in an increased tPA activity. The enzymatic activity of tPA is measured colorimetrically by employing a chromogenic substrate which becomes colored after amidolysis.
Reaction: The inhibition of the enzymatic activity of tPA by PAI-1 is measured by means of the amidolysis of the chromogenic substrate H-D-IIe-Pro-Arg-pNA (Chromogenix; pNA=para-nitroaniline) as the optical density (OD) at a wavelength of 405 nm.
Extracts or pure substances, for example of the spirobenzofuran lactam derivatives prepared or characterized in examples 4–10, which are present dissolved in DMSO, were diluted in a suitable manner using TRIS buffer pH 8.4.
5 μl of test substance and 5 μl of PAI-1 are preincubated at room temperature for 30 minutes. 10 μl of tPA solution and 20 μl of substrate solution are then added.
The final concentrations in the sample are 50 μM test substance, 4.5 nM PAI-1, 7.5 nM tPA and 1 mM substrate in TRIS buffer pH 8.4. Immediately after the addition of the substrate, the initial absorption is measured at 405 nm. After incubation at 37° C. for 60 minutes, the absorption is measured again.
In each case, blank samples (buffer instead of tPA), positive controls=B (buffer instead of test substances) and tPA controls=A (buffer instead of PAI-1) are co-tested.
After correction by means of the blank samples, the inhibition is determined according to the following equation: […]
The results of the assay are shown as IC50 values in Table 1.
For `CC(C)CC(C(=O)O)N1Cc2c(cc(O)c3c2OC2(C3)C(C)CCC3C(C)(C)C(O)CCC32C)C1=O` (stereo not drawn) [Compound of the formula (IV)], the IC50 was 35 µM.
`CCC(C)C(C(=O)O)N1Cc2c(cc(O)c3c2OC2(C3)C(C)CCC3C(C)(C)C(O)CCC32C)C1=O` (stereo not drawn) [Compound of the formula (III)] was tested, and the IC50 was 66 µM.
In the case of `CC1CCC2C(C)(C)C(O)CCC2(C)C12Cc1c(O)cc3c(c1O2)CN(C(Cc1ccccc1)C(=O)O)C3=O` (stereo not drawn) [Compound of the formula (II)], the IC50 is reported as 41 µM.

Reference: US7160917B2, “Spirobenzofuran lactams and their derivatives, processes for their preparation and use thereof” (Sanofi-Aventis Deutschland GmbH, priority 2002, dated 2007)
